The text below walks through data of ChEMBL document CHEMBL1201862, “PubChem BioAssay data set” (2004).

Structures are written as SMILES.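 Interpolation was linear, between the two tested concentrations surrounding the appropriate level; five concentrations were tested over 48 hours in 96-well plates. GI50 = concentration required for 50% inhibition of growth.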 Activity calls are given as the source filed them. Cut-off read from the data, not from the text of the source: active = GI50 up to about 1.1 µM and inactive = higher. Where only a bound is given, the exact number is not on record here.

Among the test systems are SK-MEL-28; HOP-92; SN12C; EKVX; ACHN; MDA-MB-231; SW-620; Malme-3M; PC-3; RPMI-8226; K562; SR; MOLT-4; TK-10; COLO 205; MDA-MB-435; OVCAR-3; HOP-62; NCI-H522; SK-MEL-2.
Holding throughout (experiment): DTP human tumour cell line panel, 48 h

What is called GI50 is the concentration giving 50% growth inhibition. For the compound `CC1=NN(C(=O)CC(=O)NC(=O)/C=C\c2ccccc2)C(=O)C1/N=N/c1ccc([N+](=O)[O-])cc1` (stereo not drawn), the GI50 is > 100 µM (inactive) in the test on SK-MEL-28; 38.3 µM (inactive) in the test on HOP-92; > 100 µM (inactive) in the test with SN12C; 46.9 µM (inactive) in the test on EKVX; 37.4 µM (inactive) with ACHN; > 100 µM (inactive) in the test on MDA-MB-231. Besides, the GI50 in the test on SW-620 is > 100 µM (inactive); in the test with Malme-3M it was > 100 µM (inactive); in the test with PC-3 it was > 100 µM (inactive); with RPMI-8226, 85.5 µM (inactive); in the test with K562, 53.2 µM (inactive); in the test on SR it was > 10 µM (inactive). Also, the GI50 is 60.1 µM (inactive) in the test on MOLT-4; 48.5 µM (inactive) in the test with TK-10; > 100 µM (inactive) in the test with COLO 205; > 100 µM (inactive) in the test on MDA-MB-435; 50.7 µM (inactive) in the test with OVCAR-3; > 100 µM (inactive) in the test with HOP-62.
As to `CC1=NN(c2cccc(Cl)c2)C2(C1=Cc1ccccc1)C(Cl)C(=O)N2c1nc2ccccc2s1` (stereo not drawn), the GI50 is 27.2 µM (inactive) with SK-MEL-28; 16.8 µM (inactive) in the test on NCI-H522; 9.14 µM (inactive) in the test with HOP-92; 33.9 µM (inactive) in the test on EKVX; 16.7 µM (inactive) in the test with ACHN; 18.4 µM (inactive) with MDA-MB-231. The GI50 with SW-620 was 19.8 µM (inactive); in the test with PC-3, 16.8 µM (inactive); in the test with RPMI-8226, 21.9 µM (inactive); with K562, 19.1 µM (inactive); in the test on SR, 24.2 µM (inactive); with MOLT-4 it was 23.5 µM (inactive). Also, the GI50 in the test on TK-10 was 37.8 µM (inactive); in the test with MDA-MB-435, 19.3 µM (inactive); with SK-MEL-2 it was 17 µM (inactive); in the test with OVCAR-3 it was 16.3 µM (inactive); in the test with HOP-62, 20.3 µM (inactive).
As for `CCOC(=O)c1cn(C)nc1N/C(C)=C\C(=O)c1ccccc1`, the GI50 in the test with SK-MEL-28, in the test with NCI-H522, with HOP-92, with SN12C, in the test with EKVX and in the test with ACHN was > 100 µM (inactive) each time. Moreover, the GI50 was 20.9 µM (inactive) in the test with MDA-MB-231; > 100 µM (inactive) in the test on SW-620; > 100 µM (inactive) in the test with Malme-3M; > 100 µM (inactive) in the test on PC-3; > 100 µM (inactive) in the test with K562; > 100 µM (inactive) with SR. Besides, the GI50 in the test with MOLT-4 was > 100 µM (inactive); in the test on TK-10 it was > 100 µM (inactive); in the test with COLO 205, > 100 µM (inactive); in the test with MDA-MB-435, > 100 µM (inactive); in the test on OVCAR-3 it was > 100 µM (inactive); with HOP-62, 33 µM (inactive).
With `O=C1C=CC2(C=C1)O[C@H](CCc1ccccc1)[C@@H](CCc1ccccc1)O2`, the GI50 with SK-MEL-28 was > 100 µM (inactive); with HOP-92, 21.9 µM (inactive); in the test with SN12C, > 100 µM (inactive); in the test with EKVX, 24 µM (inactive); in the test on ACHN, > 100 µM (inactive); with MDA-MB-231 it was > 100 µM (inactive). Also, the GI50 was > 100 µM (inactive) in the test with SW-620; > 100 µM (inactive) in the test on Malme-3M; > 100 µM (inactive) in the test with PC-3; 82 µM (inactive) with RPMI-8226; > 100 µM (inactive) in the test with K562; > 100 µM (inactive) with SR. Besides, the GI50 in the test on MOLT-4 is 81.8 µM (inactive); in the test with TK-10 it was > 100 µM (inactive); with COLO 205, > 100 µM (inactive); in the test with MDA-MB-435, 27.9 µM (inactive); in the test with SK-MEL-2, > 100 µM (inactive); with OVCAR-3, > 100 µM (inactive). Moreover, the GI50 in the test with HOP-62 was 61.2 µM (inactive).
For `CCOC(=O)C1=C(C)OC(=O)[C@@]2(OC)C=C(Cl)[C@@]12C`, the GI50 in the test on SK-MEL-28, in the test with NCI-H522, with HOP-92, in the test with SN12C, in the test on EKVX and in the test on ACHN was > 100 µM (inactive) each time. Moreover, the GI50 with MDA-MB-231, in the test on SW-620, with Malme-3M, in the test on PC-3, in the test with RPMI-8226 and with K562 was > 100 µM (inactive) throughout. Further, the GI50 in the test with SR, in the test on MOLT-4, with TK-10, in the test on COLO 205, with MDA-MB-435 and in the test with OVCAR-3 was > 100 µM (inactive) in each case. Also, in the test with HOP-62, the GI50 was > 100 µM (inactive).
Take `CCNC(=O)Nc1cccc(C)n1`: the GI50 was > 100 µM (inactive) with SK-MEL-28; > 100 µM (inactive) in the test on NCI-H522; > 100 µM (inactive) with HOP-92; > 100 µM (inactive) in the test on SN12C; 15.7 µM (inactive) with EKVX; > 100 µM (inactive) in the test on ACHN. The GI50 in the test with MDA-MB-231, in the test on SW-620, in the test on Malme-3M, with PC-3, with K562 and in the test with SR was > 100 µM (inactive) throughout. Also, the GI50 in the test with MOLT-4 was > 100 µM (inactive); in the test on TK-10, > 100 µM (inactive); with COLO 205, > 100 µM (inactive); in the test on MDA-MB-435, > 100 µM (inactive); in the test on OVCAR-3, > 100 µM (inactive); with HOP-62 it was 91.4 µM (inactive).
With `CCOP(=O)(OCC)/C(C#N)=C(\C)c1ccco1`, the GI50 with SK-MEL-28, in the test on HOP-92, in the test on SN12C, with EKVX, with ACHN and in the test on MDA-MB-231 was > 10 µM (inactive) in each case. The GI50 in the test with SW-620, in the test with Malme-3M, in the test on PC-3, with RPMI-8226, in the test with K562 and in the test on SR was > 10 µM (inactive) each time. For the same compound, the GI50 in the test with MOLT-4, in the test on TK-10, in the test with COLO 205, in the test on MDA-MB-435, in the test with SK-MEL-2 and in the test on OVCAR-3 was > 10 µM (inactive) each time. The GI50 in the test with HOP-62 is > 10 µM (inactive).
With `O=C1c2ccccc2C(=O)N1CCCCNOCCCN1C(=O)c2ccccc2C1=O`, the GI50 with SK-MEL-28, in the test on NCI-H522, in the test with HOP-92, in the test on SN12C, in the test with EKVX and in the test on ACHN was > 100 µM (inactive) throughout. Also, the GI50 in the test with MDA-MB-231, in the test on SW-620, in the test on Malme-3M, in the test with PC-3, in the test on RPMI-8226 and in the test on K562 was > 100 µM (inactive) each time. In addition, the GI50 in the test with SR, in the test with MOLT-4, with TK-10, in the test with COLO 205, with MDA-MB-435 and in the test with OVCAR-3 was > 100 µM (inactive) in each case. For the same compound, the GI50 with HOP-62 is > 100 µM (inactive).
With `Cn1ccnc1CCc1ccc(F)cc1F`, the GI50 in the test on SK-MEL-28, in the test on NCI-H522, in the test on SN12C, in the test with EKVX, in the test with ACHN and in the test with MDA-MB-231 was > 100 µM (inactive) throughout. The GI50 in the test on SW-620, in the test with Malme-3M, in the test with PC-3, with RPMI-8226, in the test with K562 and in the test with SR was > 100 µM (inactive) each time. The GI50 in the test on MOLT-4, in the test on TK-10, in the test with COLO 205, in the test on MDA-MB-435, with SK-MEL-2 and in the test with OVCAR-3 was > 100 µM (inactive) each time. Besides, the GI50 with HOP-62 was > 100 µM (inactive).
As for `CC(C)C(C/C=C1/CC(CO)(COC(=O)CC(C(C)C)C(C)C)OC1=O)C(C)C` (stereo not drawn), the GI50 with SK-MEL-28 is 14.2 µM (inactive); in the test on NCI-H522, 12.9 µM (inactive); with HOP-92, 0.998 µM (active); in the test on SN12C, 14.2 µM (inactive); with EKVX, 1.79 µM (inactive); in the test on ACHN, 1.79 µM (inactive). In addition, the GI50 in the test on MDA-MB-231 is 4.21 µM (inactive); in the test with SW-620, 0.991 µM (active); with Malme-3M, 10.7 µM (inactive); with PC-3, 4.85 µM (inactive); in the test with K562 it was 0.389 µM (active); in the test on SR it was 17.1 µM (inactive). For the same compound, the GI50 was 2.08 µM (inactive) in the test on TK-10; 0.0811 µM (active) with COLO 205; 0.475 µM (active) in the test with MDA-MB-435; 15.2 µM (inactive) in the test with SK-MEL-2; 13.8 µM (inactive) with OVCAR-3; 1.34 µM (inactive) in the test with HOP-62.
In the case of `CCc1nc(N)nc(N)c1-c1ccc(N2CCNCC2)cc1`, the GI50 with SK-MEL-28 was > 78.5 µM (inactive); with NCI-H522, 55.1 µM (inactive); in the test on HOP-92 it was > 100 µM (inactive); in the test on SN12C it was 87.7 µM (inactive); in the test with EKVX it was > 83 µM (inactive); in the test with ACHN it was 51.3 µM (inactive). The GI50 in the test with MDA-MB-231 is > 93.3 µM (inactive); in the test on SW-620, 56.5 µM (inactive); with PC-3, 49.3 µM (inactive); with RPMI-8226, > 56.1 µM (inactive); in the test with K562 it was 24.2 µM (inactive); in the test with SR, 23.4 µM (inactive). Also, the GI50 is 41 µM (inactive) in the test on MOLT-4; > 100 µM (inactive) with TK-10; 18.9 µM (inactive) in the test with COLO 205; 59.8 µM (inactive) in the test with MDA-MB-435; > 100 µM (inactive) in the test with SK-MEL-2; > 83.8 µM (inactive) in the test on OVCAR-3. In the test on HOP-62, the GI50 is 55.8 µM (inactive).
